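Protocol summary: plate cells (96-well), add compound at 5 concentrations, incubate 48 h, interpolate endpoints linearly. GI50 = concentration required for 50% inhibition of growth.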 Active and inactive are the calls of the source. Rule as the data show it: active = GI50 up to about 1.1 µM and inactive = higher.
Columns and labels:
Test in all cases: NCI-60 cell line screen, 48 h
SF-295 = test system: SF-295
SN12C = test system: SN12C
M14 = test system: M14
XF498 = test system: XF498
COLO 205 = test system: COLO 205
BT-549 = test system: BT-549
HCT-15 = test system: HCT-15
Malme-3M = test system: Malme-3M
SW-620 = test system: SW-620
HCT-116 = test system: HCT-116
OVCAR-4 = test system: OVCAR-4
DLD-1 = test system: DLD-1
K562 = test system: K562
HOP-92 = test system: HOP-92
NCI-H460 = test system: NCI-H460
RPMI-8226 = test system: RPMI-8226
LOX IMVI = test system: LOX IMVI
OVCAR-5 = test system: OVCAR-5
UO-31 = test system: UO-31
NCI/ADR-RES = test system: NCI/ADR-RES
TK-10 = test system: TK-10
SNB-19 = test system: SNB-19
MDA-MB-231 = test system: MDA-MB-231
RXF 393 = test system: RXF 393
UACC-62 = test system: UACC-62
DU-145 = test system: DU-145
SF-268 = test system: SF-268
CAKI-1 = test system: CAKI-1
NCI-H226 = test system: NCI-H226
DMS-273 = test system: DMS-273
SK-MEL-28 = test system: SK-MEL-28
NCI-H522 = test system: NCI-H522
DMS-114 = test system: DMS-114
EKVX = test system: EKVX
PC-3 = test system: PC-3
SK-MEL-5 = test system: SK-MEL-5
A498 = test system: A498
KM-20L2 = test system: KM-20L2
NCI-H23 = test system: NCI-H23
HCC 2998 = test system: HCC 2998
KM12 = test system: KM12
IGROV-1 = test system: IGROV-1
MCF7 = test system: MCF7
SNB-78 = test system: SNB-78
HOP-18 = test system: HOP-18
OVCAR-8 = test system: OVCAR-8
UACC-257 = test system: UACC-257
OVCAR-3 = test system: OVCAR-3
HL-60 = test system: HL-60
SNB-75 = test system: SNB-75
Hs-578T = test system: Hs-578T
SK-OV-3 = test system: SK-OV-3
SF-539 = test system: SF-539
MDA-N = test system: MDA-N
MDA-MB-435 = test system: MDA-MB-435
ACHN = test system: ACHN
U-251 = test system: U-251
MOLT-4 = test system: MOLT-4
HT-29 = test system: HT-29
SK-MEL-2 = test system: SK-MEL-2
T47D = test system: T47D
SR = test system: SR
A549 = test system: A549
786-0 = test system: 786-0
HOP-62 = test system: HOP-62
CCRF-CEM = test system: CCRF-CEM
LXFL 529 = test system: LXFL 529

Measured: GI50

C#CCN1CCN(C(=S)N/N=C(\C)c2ccccn2)CC1
inactive: BT-549 1490 nM | TK-10 3280 nM | SNB-19 2990 nM | MDA-MB-231 1280 nM | DU-145 1480 nM | CAKI-1 1420 nM | NCI-H226 1190 nM | SK-MEL-28 1360 nM | SK-MEL-5 1360 nM | A498 2150 nM | SNB-78 5370 nM | HOP-18 2720 nM | SNB-75 4860 nM | Hs-578T 1740 nM | SF-539 1490 nM | MDA-N 1460 nM | MDA-MB-435 1490 nM | A549 3120 nM
10 nM: HCT-15
active: SF-295 632 nM | SN12C 232 nM | M14 26.3 nM | XF498 10 nM | COLO 205 10 nM | Malme-3M 1000 nM | SW-620 26.2 nM | HCT-116 1 nM | OVCAR-4 350 nM | DLD-1 10 nM | K562 10 nM | HOP-92 166 nM | NCI-H460 619 nM | RPMI-8226 10 nM | LOX IMVI 10 nM | OVCAR-5 69 nM | UO-31 634 nM | NCI/ADR-RES 10 nM | RXF 393 465 nM | UACC-62 25.2 nM | SF-268 889 nM | DMS-273 < 16.1 nM | NCI-H522 55.2 nM | DMS-114 10 nM | EKVX 79.2 nM | PC-3 9.75 nM | KM-20L2 < 24.8 nM | NCI-H23 10 nM | HCC 2998 568 nM | KM12 161 nM | IGROV-1 10 nM | MCF7 10 nM | OVCAR-8 10 nM | UACC-257 < 14 nM | OVCAR-3 < 57 nM | HL-60 10 nM | SK-OV-3 877 nM | ACHN 44 nM | U-251 18.9 nM | MOLT-4 10 nM | HT-29 115 nM | SK-MEL-2 262 nM | T47D 1.6 nM | SR 11 nM | 786-0 72.1 nM | HOP-62 363 nM | CCRF-CEM 10 nM | LXFL 529 1 nM

Reference: ChEMBL document CHEMBL1201862, “PubChem BioAssay data set” (2004)
